The structures appear in SMILES notation. Bounds are passed on as bounds.

As a reminder, the EC50 is the concentration giving half of the maximal effect.

In this test the test system is HBV. Description: Anti-HBV assay (inhibition of HBV replication in HepG2.cl42 cells, HBV DNA by qPCR). Format: cell-based, HBV ayw strain. The conditions noted are these: Hepatitis B virus, 96 h, treated four days, HBV DNA quantified by real time PCR, read-out: HBsAg EC50. In general terms: Quantitative PCR measures a nucleic acid by following its amplification.
As to `COC[C@H]1CN(c2onc3c2CN(C(=O)Nc2cc(F)c(F)c(F)c2)[C@@H](C)C3)C(=O)O1` [Compound 62, (S)-3-((R)-5-(methoxymethyl)-2-oxooxazolidin-3-yl)-6-methyl-N-(3,4,5-trifluorophenyl)-6,7-dihydroisoxazolo[4,3-c]pyridine-5(4H)-carboxamide], the EC50 was 100 to 1000 nM.

Take `C[C@@H]1Cc2noc(-c3ccc(F)cc3F)c2CN1C(=O)Nc1cc(F)c(F)c(F)c1` [Compound 3.1-II, (R)-3-(2,4-difluorophenyl)-6-methyl-N-(3,4,5-trifluorophenyl)-6,7-dihydroisoxazolo[4,3-c]pyridine-5(4H)-carboxamide]: the EC50 lay within 100 to 1000 nM.

With `O=C(Nc1cc(F)c(F)c(F)c1)C1CCc2noc(-c3ccc(F)cc3F)c2C1` (centres unmarked) [Compound 6.1, 3-(2,4-difluorophenyl)-N-(3,4,5-trifluorophenyl)-4,5,6,7-tetrahydrobenzo[c]isoxazole-5-carboxamide], the concentration giving a half-maximal response (EC50) lay within 100 to 1000 nM.

As to `C[C@H]1c2c(noc2C2CCCC2)CCN1C(=O)Nc1cc(F)c(F)c(F)c1` [Compound 44], the EC50 was ≥ 1000 nM.

On to `Cc1nc(-c2onc3c2[C@H](C)N(C(=O)Nc2cc(F)c(F)c(F)c2)CC3)cs1` [Compound 30, (S)-4-methyl-3-(2-methylthiazol-4-yl)-N-(3,4,5-trifluorophenyl)-6,7-dihydroisoxazolo[4,3-c]pyridine-5(4H)-carboxamide], for which the EC50 was ≥ 1000 nM.

For `C[C@H]1Cc2noc(N3CCCOC3=O)c2CN1C(=O)Nc1ccc(F)c(C(F)F)c1` [Compound 50, (S)—N-(3-(difluoromethyl)-4-fluorophenyl)-6-methyl-3-(2-oxo-1,3-oxazinan-3-yl)-6,7-dihydroisoxazolo[4,3-c]pyridine-5(4H)-carboxamide], the EC50 was < 100 nM.

Turning to `O=C(Nc1cc(F)c(F)c(F)c1)N1CCc2noc(N3CCCC3)c2C1` [Compound 5.3, 3-(pyrrolidin-1-yl)-N-(3,4,5-trifluorophenyl)-6,7-dihydroisoxazolo[4,3-c]pyridine-5(4H)-carboxamide], the EC50 is ≥ 1000 nM.

In the case of `C[C@H]1Cc2noc(-c3ccc(F)cc3)c2CN1C(=O)Nc1cc(F)c(F)c(F)c1` [Compound 13], the EC50 lay in the range of 100 to 1000 nM.

`C[C@H]1c2c(noc2-c2ccc(F)cn2)CCN1C(=O)Nc1cc(F)c(F)c(F)c1` [Compound 28, (S)-3-(5-fluoropyridin-2-yl)-4-methyl-N-(3,4,5-trifluorophenyl)-6,7-dihydroisoxazolo[4,3-c]pyridine-5(4H)-carboxamide]: the EC50 is 100 to 1000 nM.

`C[C@H]1Cc2noc(-c3ccc(OC(F)(F)F)cc3)c2CN1C(=O)Nc1cc(F)c(F)c(F)c1` [Compound 16]: the EC50 was in the range of 100 to 1000 nM.

Regarding `C[C@H]1Cc2noc(-c3ccc(Cl)cc3)c2CN1C(=O)Nc1cc(F)c(F)c(F)c1` [Compound 18], the EC50 lay in the range of 100 to 1000 nM.

As for `C[C@H]1Cc2noc(-c3cccc(Cl)c3)c2CN1C(=O)Nc1cc(F)c(F)c(F)c1` [Compound 22], the EC50 was ≥ 1000 nM.

As to `Cc1cc(-c2onc3c2[C@H](C)N(C(=O)Nc2cc(F)c(F)c(F)c2)CC3)no1` [Compound 26, (S)-4-methyl-3-(5-methylisoxazol-3-yl)-N-(3,4,5-trifluorophenyl)-6,7-dihydroisoxazolo[4,3-c]pyridine-5(4H)-carboxamide], the EC50 was ≥ 1000 nM.

Turning to `C[C@H]1Cc2noc(N3CCCOC3=O)c2CN1C(=O)Nc1ccnc(C(F)F)c1` [Compound 52, (S)—N-(2-(difluoromethyl)pyridin-4-yl)-6-methyl-3-(2-oxo-1,3-oxazinan-3-yl)-6,7-dihydroisoxazolo[4,3-c]pyridine-5(4H)-carboxamide], the EC50 was in the range of 100 to 1000 nM.

For `C[C@H]1Cc2noc(-c3cccc(F)c3)c2CN1C(=O)Nc1cc(F)c(F)c(F)c1` [Compound 21], the EC50 fell in the range of 100 to 1000 nM.

Turning to `CC1c2c(noc2-c2ccc(F)cc2F)CCN1C(=O)Nc1cc(F)c(F)c(F)c1` (centres unmarked) [Compound 4.1, 3-(2,4-difluorophenyl)-4-methyl-N-(3,4,5-trifluorophenyl)-6,7-dihydroisoxazolo[4,3-c]pyridine-5(4H)-carboxamide], the EC50 was ≥ 1000 nM.

In the case of `C[C@H]1Cc2noc(-c3ccc(C#N)cc3)c2CN1C(=O)Nc1cc(F)c(F)c(F)c1` [Compound 19], the EC50 fell in the range of 100 to 1000 nM.

As for `Cc1nc(-c2onc3c2CN(C(=O)Nc2cc(F)c(F)c(F)c2)[C@@H](C)C3)no1` [Compound 41], the EC50 was 100 to 1000 nM.

Take `C[C@H]1Cc2noc(-c3ccc(F)cn3)c2CN1C(=O)Nc1cc(F)c(F)c(F)c1` [Compound 27, (S)-3-(5-fluoropyridin-2-yl)-6-methyl-N-(3,4,5-trifluorophenyl)-6,7-dihydroisoxazolo[4,3-c]pyridine-5(4H)-carboxamide]: the EC50 was 100 to 1000 nM.

For `Cc1nc(-c2onc3c2CN(C(=O)Nc2cc(F)c(F)c(F)c2)[C@@H](C)C3)c(C)o1` [Compound 39], the EC50 was 100 to 1000 nM.

Turning to `C[C@H]1Cc2noc(N3CCC(C)(C)C3=O)c2CN1C(=O)Nc1cc(F)c(F)c(F)c1` [Compound 57, (S)-3-(3,3-dimethyl-2-oxopyrrolidin-1-yl)-6-methyl-N-(3,4,5-trifluorophenyl)-6,7-dihydroisoxazolo[4,3-c]pyridine-5(4H)-carboxamide], the EC50 is < 100 nM.

In the case of `C[C@H]1Cc2noc(N3CCOCC3=O)c2CN1C(=O)Nc1cc(F)c(F)c(F)c1` [Compound 49, (S)-6-methyl-3-(3-oxomorpholino)-N-(3,4,5-trifluorophenyl)-6,7-dihydroisoxazolo[4,3-c]pyridine-5(4H)-carboxamide], the EC50 is < 100 nM.

Regarding `Cc1nc(-c2onc3c2CN(C(=O)Nc2cc(F)c(F)c(F)c2)[C@@H](C)C3)cs1` [Compound 29, (S)-6-methyl-3-(2-methylthiazol-4-yl)-N-(3,4,5-trifluorophenyl)-6,7-dihydroisoxazolo[4,3-c]pyridine-5(4H)-carboxamide], the EC50 lay in the range of 100 to 1000 nM.

`Cc1ccccc1-c1onc2c1CN(C(=O)Nc1cc(F)c(F)c(F)c1)[C@@H](C)C2` [Compound 17]: the EC50 lay within 100 to 1000 nM.

`Cc1nc(-c2onc3c2[C@H](C)N(C(=O)Nc2cc(F)c(F)c(F)c2)CC3)no1` [Compound 42]: the EC50 lay in the range of 100 to 1000 nM.

In the case of `C[C@H]1c2c(noc2-c2cn(C)nn2)CCN1C(=O)Nc1cc(F)c(F)c(F)c1` [Compound 38], the EC50 was ≥ 1000 nM.

Values taken from patent publication US20210079015A1, “NOVEL DIHYDROISOXAZOLE COMPOUNDS AND THEIR USE FOR THE TREATMENT OF HEPATITIS B” (Novartis AG, priority 2017, published 2021).
